Experimental data from paper PMC9658223, “New, Eco-Friendly Method for Synthesis of 3-Chlorophenyl and 1,1′-Biphenyl Piperazinylhexyl Trazodone Analogues with Dual 5-HT1A/5-HT7 Affinity and Its Antidepressant-like Activity” (Molecules, 2022).
Where a name gives a salt, the structure may show the parent alone.

Legend:
5-HT7 receptor = target: T1, 5-HT7 receptor (Homo sapiens, UniProt P34969); experiment: LANCE Ultra cAMP assay, inhibition of 5-CT-induced cAMP in HEK-293 cells overexpressing 5-HT7bR; assay type: cell-based
T1 construct: gene HTR7; 5-HT7bR
T1 sequence (P34969 1-432): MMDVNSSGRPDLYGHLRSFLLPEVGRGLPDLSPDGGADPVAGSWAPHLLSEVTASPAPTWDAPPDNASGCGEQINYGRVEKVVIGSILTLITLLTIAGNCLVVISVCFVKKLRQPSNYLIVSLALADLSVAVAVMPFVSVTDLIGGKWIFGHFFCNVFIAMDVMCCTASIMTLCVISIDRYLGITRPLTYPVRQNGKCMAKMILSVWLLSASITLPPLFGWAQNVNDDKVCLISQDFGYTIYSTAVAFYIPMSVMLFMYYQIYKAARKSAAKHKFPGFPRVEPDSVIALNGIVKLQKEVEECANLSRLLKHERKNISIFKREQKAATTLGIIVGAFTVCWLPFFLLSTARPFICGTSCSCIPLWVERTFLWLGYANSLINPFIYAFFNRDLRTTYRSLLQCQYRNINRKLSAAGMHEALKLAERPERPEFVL
From the text: LANCE Ultra cAMP assay, inhibition of 5-CT-induced cAMP in HEK-293 cells overexpressing 5-HT7bR on 5-HT7 receptor | Both behaved as 5-HT7R antagonists | Both behaved as 5-HT7R antagonists, while 7b·HCl additionally acted as a 5-HT1AR antagonist in a cAMP assay.

5-HT1A receptor = target: T2, 5-HT1A receptor (Homo sapiens, UniProt P08908); experiment: LANCE Ultra cAMP functional antagonist assay in HEK293 cells; assay type: cell-based
T2 construct: gene HTR1A
T2 sequence (P08908 1-422): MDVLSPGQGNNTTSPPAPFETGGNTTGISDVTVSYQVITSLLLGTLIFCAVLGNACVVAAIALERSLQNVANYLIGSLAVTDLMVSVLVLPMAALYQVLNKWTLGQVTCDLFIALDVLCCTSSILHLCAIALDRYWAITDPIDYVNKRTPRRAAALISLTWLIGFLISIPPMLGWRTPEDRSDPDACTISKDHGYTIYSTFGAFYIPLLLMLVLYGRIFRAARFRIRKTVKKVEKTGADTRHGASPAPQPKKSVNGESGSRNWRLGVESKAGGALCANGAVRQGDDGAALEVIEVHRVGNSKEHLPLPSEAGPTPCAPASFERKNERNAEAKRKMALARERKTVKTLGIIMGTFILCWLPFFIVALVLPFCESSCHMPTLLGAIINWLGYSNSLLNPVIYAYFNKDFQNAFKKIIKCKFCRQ
From the text: LANCE Ultra cAMP functional antagonist assay in HEK293 cells on 5-HT1A receptor | 7b·HCl additionally acted as a 5-HT1AR antagonist in a cAMP assay

CYP3A4 = CYP3A4 (Homo sapiens, UniProt P08684); experiment: CYP3A4 P450-Glo luminescence assay (Promega), single concentration […]; assay type: biochemical
Sequence of CYP3A4 (P08684 2-503): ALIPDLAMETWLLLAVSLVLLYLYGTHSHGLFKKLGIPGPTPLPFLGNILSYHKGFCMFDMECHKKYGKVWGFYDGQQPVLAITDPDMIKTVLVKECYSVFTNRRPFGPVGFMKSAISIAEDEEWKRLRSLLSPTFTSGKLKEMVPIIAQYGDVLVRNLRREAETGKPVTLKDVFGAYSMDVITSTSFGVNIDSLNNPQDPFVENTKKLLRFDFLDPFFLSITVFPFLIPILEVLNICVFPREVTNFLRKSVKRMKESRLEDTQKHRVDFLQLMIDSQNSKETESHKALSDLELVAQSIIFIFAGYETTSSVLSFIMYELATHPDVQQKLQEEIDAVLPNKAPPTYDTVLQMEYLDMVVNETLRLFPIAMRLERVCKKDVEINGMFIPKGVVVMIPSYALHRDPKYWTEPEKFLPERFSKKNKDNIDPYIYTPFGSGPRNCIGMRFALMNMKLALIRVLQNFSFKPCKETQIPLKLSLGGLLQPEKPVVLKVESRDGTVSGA

| Kb (5-HT7 receptor) [nM] | Kb (5-HT1A receptor) [nM] | inhibition at 10 µM (CYP3A4) [%] | SMILES |
| --- | --- | --- | --- |
| 87 | – | – | O=c1n(CCCCCCN2CCN(c3cccc(Cl)c3)CC2)nc2ccccn12 [7a·HCl, 2-(6-(4-(3-chlorophenyl)piperazin-1-yl)hexyl)-[1,2,4]triazolo[4,3-a]pyridin-3(2H)-one hydrochloride] |
| 18 | 12 | 35 | O=c1n(CCCCCCN2CCN(c3ccccc3-c3ccccc3)CC2)nc2ccccn12 [7b·HCl, 2-(6-(4-([1,1′-biphenyl]-2-yl)piperazin-1-yl)hexyl)-[1,2,4]triazolo[4,3-a]pyridin-3(2H)-one hydrochloride] |
